Experimental data from patent US20120264735A1 (priority 2009, published 2012).

Target: T1, c-Met kinase (recombinant c-Met) (Homo sapiens, UniProt P08581)
T1 construct: 0.27 nM recombinant c-Met
Test: In vitro kinase assay I (homogeneous time-resolved fluorescence tyrosine kinase assay)
Type: biochemical
Outline: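 Biotinylated peptide (0.5 μM) phosphorylated by 0.2 nM recombinant c-Met with 50 μM MgATP, 60 min at room temperature, pH 7.4, 5% DMSO. EDTA stop; HTRF read with Eu-anti-phosphotyrosine antibody and streptavidin-APC. IC50 from 4-parameter logistic fit.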

T1 sequence (P08581 25-1390): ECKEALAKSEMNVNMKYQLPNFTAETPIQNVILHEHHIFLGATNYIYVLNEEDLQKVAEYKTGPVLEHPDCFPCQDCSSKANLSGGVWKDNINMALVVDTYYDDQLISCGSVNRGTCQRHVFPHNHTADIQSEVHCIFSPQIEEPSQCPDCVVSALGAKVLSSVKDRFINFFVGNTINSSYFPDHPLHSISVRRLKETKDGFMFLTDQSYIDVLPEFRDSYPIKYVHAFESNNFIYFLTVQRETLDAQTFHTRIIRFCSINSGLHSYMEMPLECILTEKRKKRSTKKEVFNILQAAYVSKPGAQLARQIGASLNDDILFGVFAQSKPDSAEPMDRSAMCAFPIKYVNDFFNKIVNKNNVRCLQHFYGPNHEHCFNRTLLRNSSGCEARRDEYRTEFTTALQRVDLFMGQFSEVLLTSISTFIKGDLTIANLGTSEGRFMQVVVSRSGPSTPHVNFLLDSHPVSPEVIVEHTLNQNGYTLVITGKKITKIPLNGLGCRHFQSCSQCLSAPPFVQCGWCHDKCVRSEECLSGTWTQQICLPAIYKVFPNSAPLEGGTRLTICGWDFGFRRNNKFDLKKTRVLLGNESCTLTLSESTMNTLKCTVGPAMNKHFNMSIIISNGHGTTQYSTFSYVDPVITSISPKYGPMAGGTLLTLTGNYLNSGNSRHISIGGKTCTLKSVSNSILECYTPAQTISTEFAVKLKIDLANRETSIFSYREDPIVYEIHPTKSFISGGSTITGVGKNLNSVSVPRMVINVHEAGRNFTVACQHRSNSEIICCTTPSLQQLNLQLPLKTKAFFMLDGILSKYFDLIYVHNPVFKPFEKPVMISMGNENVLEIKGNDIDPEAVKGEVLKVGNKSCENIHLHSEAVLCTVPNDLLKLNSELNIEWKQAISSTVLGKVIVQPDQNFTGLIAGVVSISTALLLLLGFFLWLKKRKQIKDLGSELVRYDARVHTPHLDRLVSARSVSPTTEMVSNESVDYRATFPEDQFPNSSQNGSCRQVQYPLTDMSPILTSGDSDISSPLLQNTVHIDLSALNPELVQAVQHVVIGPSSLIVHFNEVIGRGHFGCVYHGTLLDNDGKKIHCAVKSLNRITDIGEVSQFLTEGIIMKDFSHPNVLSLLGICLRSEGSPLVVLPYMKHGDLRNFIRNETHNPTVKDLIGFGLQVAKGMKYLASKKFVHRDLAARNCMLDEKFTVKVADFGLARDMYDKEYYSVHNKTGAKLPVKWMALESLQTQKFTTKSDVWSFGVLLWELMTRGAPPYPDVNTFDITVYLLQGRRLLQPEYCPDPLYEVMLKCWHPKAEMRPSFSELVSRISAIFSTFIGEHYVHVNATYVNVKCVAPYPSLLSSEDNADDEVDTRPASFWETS

SMILES | IC50 [nM]
CC(c1cccc(-c2ncc(N3CCOCC3)cn2)c1)c1nn(-c2cnn(C)c2)ccc1=O (single isomer, unassigned) [Example 244, 1-(1-methyl-1H-pyrazol-4-yl)-3-{(1R or S)-1-[3-(5-morpholin-4-ylpyrimidin-2-yl)phenyl]ethyl}pyridazin-4(1H)-one] | 100 to 1000
Cn1cc(-n2ccc(=O)c(Cc3cccc(-c4ncc(-c5cncnc5)cn4)c3)n2)cn1 [Example 411, 3-[3-(5,5′-bipyrimidin-2-yl)benzyl]-1-(1-methyl-1H-pyrazol-4-yl)pyridazin-4(1H)-one] | < 100
CC1COCCN1c1cnc(-c2cccc(Cc3nn(-c4cnn(C)c4)ccc3=O)c2)nc1 (racemic) [Example 450, rac-3-{3-[5-(3-methylmorpholin-4-yl)pyrimidin-2-yl]benzyl}-1-(1-methyl-1H-pyrazol-4-yl)pyridazin-4(1H)-one] | < 100
Cn1cc(-n2ccc(=O)c(Cc3cccc(-c4ncc(C5C=CCO5)cn4)c3)n2)cn1 (racemic) [Example 174, rac-3-{3-[5-(2,5-Dihydrofuran-2-yl)pyrimidin-2-yl]benzyl}-1-(1-methyl-1H-pyrazol-4-yl)pyridazin-4(1H)-one] | < 100
COc1cnc(-c2cccc(Cc3nn(-c4cc(Cl)cc(C#N)c4)ccc3=O)c2)nc1 [Example 126, 3-chloro-5-{3-[3-(5-methoxypyrimidin-2-yl)benzyl]-4-oxopyridazin-1(4H)-yl}benzonitrile] | < 100
COCCCOc1cnc(-c2cccc(Cc3nn(-c4cccc(C#N)c4)ccc3=O)c2)nc1 [Example 322, 3-[3-{3-[5-(3-methoxypropoxy)pyrimidin-2-yl]benzyl}-4-oxopyridazin-1(4H)-yl]benzonitrile] | < 100
CCn1cc(-n2ccc(=O)c(C(C)c3cccc(-c4ncc(OC(C)C)cn4)c3)n2)cn1 (single isomer, unassigned) [Example 293, 1-(1-ethyl-1H-pyrazol-4-yl)-3-[(1R or S)-1-{3-[5-(1-methylethoxy)pyrimidin-2-yl]phenyl}ethyl]pyridazin-4(1H)-one] | < 100
CCOC(=O)Nc1cccc(Cc2nn(-c3cccc(OCC)c3)ccc2=O)c1 [Example 650, Ethyl(3-{[1-(3-ethoxyphenyl)-4-oxo-1,4-dihydropyridazin-3-yl]methyl}phenyl)carbamate] | 100 to 1000
COCCOc1cnc2ccc(Cc3nn(-c4cnn(C)c4)ccc3=O)cc2c1 [Example 61, 3-{[3-(2-methoxyethoxy)quinolin-6-yl]methyl}-1-(1-methyl-1H-pyrazol-4-yl)pyridazin-4(1H)-one] | 100 to 1000
Cn1cc(-n2ccc(=O)c(Cc3cccc(-c4ncn(CCC#N)n4)c3)n2)cn1 [Example 709, 3-[3-(3-{[1-(1-methyl-1H-pyrazol-4-yl)-4-oxo-1,4-dihydropyridazin-3-yl]methyl}phenyl)-1H-1,2,4-triazol-1-yl]propanenitrile] | 100 to 1000
CCn1cc(-n2ccc(=O)c(C(C)c3cccc(-c4ncc(OC5CN(C(=O)OC(C)(C)C)C5)cn4)c3)n2)cn1 (single isomer, unassigned) [Example 292, tert-butyl 3-{[2-(3-{(1R or S)-1-[1-(1-ethyl-1H-pyrazol-4-yl)-4-oxo-1,4-dihydropyridazin-3-yl]ethyl}phenyl)pyrimidin-5-yl]oxy}azetidine-1-carboxylate] | < 100
CCn1cc(-n2ccc(=O)c(C(C)c3cccc(-c4ncc(O)cn4)c3)n2)cn1 (single isomer, unassigned) [Example 258, 1-(1-ethyl-1H-pyrazol-4-yl)-3-{(1R or S)-1-[3-(5-hydroxypyrimidin-2-yl)phenyl]ethyl}pyridazin-4(1H)-one] | < 100
CCn1cc(-n2ccc(=O)c(C(C)c3cccc(-c4ncc(O)cn4)c3)n2)cn1 (single isomer, unassigned) [Example 257, 1-(1-ethyl-1H-pyrazol-4-yl)-3-{(1S or R)-1-[3-(5-hydroxypyrimidin-2-yl)phenyl]ethyl}pyridazin-4(1H)-one] | 1000 to 3000
CCn1cc(-n2ccc(=O)c(C(C)c3cccc(-c4ncc(OCCO)cn4)c3)n2)cn1 (single isomer, unassigned) [Example 295, 1-(1-ethyl-1H-pyrazol-4-yl)-3-[(1R or S)-1-{3-[5-(2-hydroxyethoxy)pyrimidin-2-yl]phenyl}ethyl]pyridazin-4(1H)-one] | < 100
CC(C)COC(=O)Nc1cccc(Cc2nn(-c3cnn(C4CCOC4)c3)ccc2=O)c1 (racemic) [Example 99, rac-2-methylpropyl [3-({4-oxo-1-[1-(tetrahydrofuran-3-yl)-1H-pyrazol-4-yl]-1,4-dihydropyridazin-3-yl}methyl)phenyl]carbamate] | < 100
Cn1cnc(-c2cccc(Cc3nn(-c4cnn(C)c4)ccc3=O)c2)c1 [Example 673, 3-[3-(1-methyl-1H-imidazol-4-yl)benzyl]-1-(1-methyl-1H-pyrazol-4-yl)pyridazin-4(1H)-one] | 100 to 1000
C[C@H](O)[C@H](C)Oc1cnc(-c2cccc(Cc3nn(-c4cnn(C)c4)ccc3=O)c2)nc1 (single isomer, unassigned) [Example 375] | < 100
Cn1cc(-n2ccc(=O)c(Cc3cccc(NC(=O)OCCCN4CCS(=O)(=O)CC4)c3)n2)cn1 [Example 566, 3-(1,1-dioxidothio-morpholin-4-yl)propyl (3-{[1-(1-methyl-1H-pyrazol-4-yl)-4-oxo-1,4-dihydropyridazin-3-yl]methyl}phenyl)carbamate] | < 100
Cn1cc(-n2ccc(=O)c(Cc3cccc(-c4ncc(O[C@H]5CC[C@@H](O)CC5)cn4)c3)n2)cn1 [Example 748, 3-(3-{5-[(cis-4-hydroxycyclohexyl)oxy]pyrimidin-2-yl}benzyl)-1-(1-methyl-1H-pyrazol-4-yl)pyridazin-4(1H)-one] | < 100

The remaining lines, values ahead:

IC50 [nM] | SMILES
< 100 | CCOc1cnc(-c2cccc(Cc3nn(-c4ccc(C(=O)NCC(C)(C)O)c(F)c4)ccc3=O)c2)nc1 [Example 724, 4-{3-[3-(5-ethoxypyrimidin-2-yl)benzyl]-4-oxopyridazin-fluoro-N-(2-1(4H)-yl}-2-hydroxy-2-methylpropyl) benzamide]
< 100 | CC(C)COC(=O)Nc1cccc(Cc2nn(-c3cn[nH]c3)ccc2=O)c1 [Example 197, isobutyl (3-{[4-oxo-1-(1H-pyrazol-4-yl)-1,4-dihydropyridazin-3-yl]methyl}phenyl)carbamate]
< 100 | CCn1cc(-n2ccc(=O)c(C(C)c3cccc(-c4ncc(-c5cnn(C)c5)cn4)c3)n2)cn1 (single isomer, unassigned) [Example 235, 1-(1-ethyl-1H-pyrazol-4-yl)-3-[(1R or S)-1-{3-[5-(1-methyl-1H-pyrazol-4-yl)pyrimidin-2-yl]phenyl}ethyl]pyridazin-4(1H)-one]
< 100 | Cn1cc(-c2cnc(-c3cccc(Cc4nn(-c5cnn(C)c5)ccc4=O)c3)nc2)cn1 [Example 154, 1-(1-methyl-1H-pyrazol-4-yl)-3-{3-[5-(1-methyl-1H-pyrazol-4-yl)pyrimidin-2-yl]benzyl}pyridazin-4(1H)-one]
< 100 | CCn1cc(-n2ccc(=O)c(Cc3cccc(-c4ncc(OCCN5CCOCC5)cn4)c3)n2)cn1 [Example 312, 1-(1-ethyl-1H-pyrazol-4-yl)-3-{3-[5-(2-morpholin-4-ylethoxy)pyrimidin-2-yl]benzyl}pyridazin-4(1H)-one]
< 100 | Cn1cc(-n2ccc(=O)c(Cc3cccc(-c4ncc(-c5cscn5)cn4)c3)n2)cn1 [Example 422, 1-(1-methyl-1H-pyrazol-4-yl)-3-{3-[5-(1,3-thiazol-4-yl)pyrimidin-2-yl]benzyl}pyridazin-4(1H)-one]
< 100 | CCCOC(=O)Nc1cccc(Cc2nn(-c3ccc(Br)cc3)ccc2=O)c1 [Example 14, propyl (3-{[1-(4-bromophenyl)-4-oxo-1,4-dihydropyridazin-3-yl]methyl}phenyl)carbamate]
< 100 | CC1(COc2cnc(-c3cccc(Cc4nn(-c5ccc(F)c(F)c5)ccc4=O)c3)nc2)COC1 [Example 329, 1-(3,4-difluorophenyl)-3-(3-{5-[(3-methyloxetan-3-yl)methoxy]pyrimidin-2-yl}benzyl)pyridazin-4(1H)-one]
< 100 | Cn1cc(-n2ccc(=O)c(Cc3cccc(-c4ncc(-c5ccc(N)nc5)cn4)c3)n2)cn1 [Example 419, 3-{3-[5-(6-aminopyridin-3-yl)pyrimidin-2-yl]benzyl}-1-(1-methyl-1H-pyrazol-4-yl)pyridazin-4(1H)-one]
< 100 | CCC(c1cccc(-c2ncc(OC)cn2)c1)c1nn(-c2cnn(C)c2)ccc1=O (racemic) [Example 225, rac-3-{1-[3-(5-methoxypyrimidin-2-yl)phenyl]propyl}-1-(1-methyl-1H-pyrazol-4-yl)pyridazin-4(1H)-one]
< 100 | COCCOc1cnc(-c2cccc(C(C)c3nn(-c4cnn(C)c4)ccc3=O)c2)nc1 (single isomer, unassigned) [Example 223, 3-((1R or S)-1-{3-[5-(2-methoxyethoxy)pyrimidin-2-yl]phenyl}ethyl)-1-(1-methyl-1H-pyrazol-4-yl)pyridazin-4(1H)-one]
< 100 | Cn1cc(-n2ccc(=O)c(Cc3cccc(-c4ncn(CCCC5OCC(C)(C)CO5)n4)c3)n2)cn1 [Example 720, 3-(3-{1-[3-(5,5-dimethyl-1,3-dioxan-2-yl)propyl]-1H-1,2,4-triazol-3-yl}benzyl)-1-(1-methyl-1H-pyrazol-4-yl)pyridazin-4(1H)-one]
< 100 | CCC(C)COC(=O)Nc1cccc(Cc2nn(-c3cnn(C)c3)ccc2=O)c1 (racemic) [Example 573, rac-2-methylbutyl (3-{[1-(1-methyl-1H-pyrazol-4-yl)-4-oxo-1,4-dihydropyridazin-3-yl]methyl}phenyl)carbamate]
< 100 | CCOC(=O)Nc1cccc(Cc2nn(-c3cnn(C4CCOC4)c3)ccc2=O)c1 (racemic) [Example 97, rac-ethyl [3-({4-oxo-1-[1-(tetrahydrofuran-3-yl)-1H-pyrazol-4-yl]-1,4-dihydropyridazin-3-yl}methyl)phenyl]carbamate]
